Laboratory results: ChEMBL document CHEMBL3045720, “Synthesis and antifungal activity of 2-chloromethyl-1H-benzimidazole derivatives against phytopathogenic fungi in vitro” (J Agric Food Chem, 2013)
Converted amounts (≈) assume the structure as drawn.

Tests used:
[1] = tested on: Colletotrichum gloeosporioides; assay: Antifungal activity against Colletotrichum gloeosporioides assessed as inhibition of mycelium growth […]; assay type: functional, organism-based
Alternaria solani [2] = assay: Antifungal activity against Alternaria solani assessed as inhibition of mycelium growth at 100 ug/ml […]; assay type: functional; conditions: 168 h, read-out: GI
Fusarium solani [3] = assay: Antifungal activity against Fusarium solani assessed as inhibition of mycelium growth after 1 week; assay type: functional, organism-based
Alternaria solani [4] = assay: Antifungal activity against Alternaria solani assessed as inhibition of mycelium growth after 1 week; assay type: functional, organism-based
[5] = tested on: Colletotrichum gloeosporioides; assay: Antifungal activity against Colletotrichum gloeosporioides assessed as inhibition of mycelium growth at 100 ug/ml after 3 to 4 days; conditions: 72 to 96 h, read-out: GI
Cytospora [6] = assay: Antifungal activity against Cytospora sp. assessed as inhibition of mycelium growth at 100 ug/ml after 3 to 4 days; conditions: 72 to 96 h, read-out: GI
Cytospora [7] = assay: Antifungal activity against Cytospora sp. assessed as […]; assay type: functional, organism-based
Fusarium solani [8] = assay: Antifungal activity against Fusarium solani assessed as inhibition of mycelium growth at 100 ug/ml […]; assay type: functional; conditions: 168 h, read-out: GI
Botrytis cinerea [9] = assay: Antifungal activity against Botryotinia fuckeliana assessed as inhibition of mycelium growth after 1 week; assay type: functional, organism-based; conditions: 168 h
Botrytis cinerea [10] = assay: Antifungal activity against Botryotinia fuckeliana assessed as inhibition of mycelium growth at 100 ug/ml […]; assay type: functional; conditions: 168 h, read-out: GI
[11] = Colletotrichum gloeosporioides, read-out: IC50
[12] = Fusarium solani, 168 h, read-out: IC50
[13] = Alternaria solani, 168 h, read-out: IC50
[14] = Cytospora, 168 h, read-out: IC50

| Compound | IC50 [1, 11] [µg/mL] | inhibition of growth at 100 µg/mL (Alternaria solani [2]) [%] | IC50 (Fusarium solani [3]; [12]) [µg/mL] | IC50 (Alternaria solani [4]; [13]) [µg/mL] | inhibition of growth at 100 µg/mL [5] [%] | inhibition of growth at 100 µg/mL (Cytospora [6]) [%] | IC50 (Cytospora [7]; [14]) [µg/mL] | inhibition of growth at 100 µg/mL (Fusarium solani [8]) [%] | IC50 (Botrytis cinerea [9]) [µg/mL] | inhibition of growth at 100 µg/mL (Botrytis cinerea [10]) [%] | IC50 [1] | IC50 (Fusarium solani [3]) | IC50 (Alternaria solani [4]) | IC50 (Cytospora [7]) |
| --- | --- | --- | --- | --- | --- | --- | --- | --- | --- | --- | --- | --- | --- | --- |
| Cn1c(COc2ccc(Cl)cc2)nc2ccccc21 | 41.3 (≈ 151 µM) | 77.8 | > 100 | 62.5 (≈ 229 µM) | 90.5 | 76.3 | 24.9 (≈ 91.3 µM) | 64.1 | 26.8 (≈ 98.3 µM) | 83 | – | – | – | – |
| Cn1c(COc2ccc(F)cc2)nc2ccccc21 | > 100 | 85.2 | 31.5 (≈ 123 µM) | 69.3 (≈ 271 µM) | 62.7 | 80.6 | 58.2 (≈ 227 µM) | 83.9 | > 120 | 47.4 | – | – | – | – |
| Cn1c(CCl)nc2ccccc21 | 80.3 (≈ 444 µM) | 51.6 | > 150 | > 100 | 69.6 | 45.4 | > 100 | 28.8 | 68.1 (≈ 377 µM) | 91.5 | – | – | – | – |
| Cn1c(COc2ccc3c(c2)OCO3)nc2cc([N+](=O)[O-])ccc21 | – | 7.22 | – | – | < 5 | 12.4 | – | 34.8 | 69.1 (≈ 211 µM) | 91.2 | Not Active | Not Active | Not Active | Not Active |
| CCOC(=O)c1ccc(OCc2nc3ccccc3n2C)cc1 | 49.7 (≈ 160 µM) | 39.1 | > 150 | > 150 | 71.7 | 79.9 | 52.6 (≈ 169 µM) | 21.4 | > 150 | 35.9 | – | – | – | – |
| CC(=O)n1c(CCl)nc2ccccc21 | > 150 | 11.3 | – | – | 43.9 | 8.05 | – | 21.4 | 50.9 (≈ 244 µM) | 57.3 | – | Not Active | Not Active | Not Active |
| CS(=O)(=O)n1c(CCl)nc2ccccc21 | 11.4 (≈ 46.5 µM) | 68 | 40.1 (≈ 164 µM) | > 100 | 100 | 100 | 31 (≈ 127 µM) | 79.2 | 57.7 (≈ 236 µM) | 79.9 | – | – | – | – |
| Cc1cc(O)no1 [HYMEXAZOL] | > 100 | 80.3 | 38.5 (≈ 388 µM) | 14 (≈ 142 µM) | 49.2 | 38.9 | > 100 | 72.5 | 8.92 (≈ 90 µM) | 100 | – | – | – | – |
| ClCc1nc2ccccc2[nH]1 | 83.1 (≈ 499 µM) | 25.3 | – | > 100 | 67.6 | < 5 | – | 6.59 | > 100 | 53.2 | – | Not Active | – | Not Active |
| Cn1c(COc2ccccc2)nc2ccccc21 | 20.8 (≈ 87.1 µM) | 75.4 | 18.6 (≈ 78.1 µM) | 27.6 (≈ 116 µM) | 87.3 | 84.2 | 50 (≈ 210 µM) | 84.5 | > 150 | 29.8 | – | – | – | – |
| Cn1c(COc2ccc3c(c2)OCO3)nc2ccccc21 | 55.7 (≈ 197 µM) | 64 | 73 (≈ 258 µM) | > 100 | 81 | 80.6 | 54.3 (≈ 192 µM) | 74.5 | 63.7 (≈ 226 µM) | 88.3 | – | – | – | – |
| CC(=O)c1ccccc1OCc1nc2ccccc2n1C | 70.6 (≈ 252 µM) | 65.5 | > 100 | > 100 | 71.4 | 64.5 | > 100 | 64.7 | > 100 | 64.9 | – | – | – | – |
| Cn1c(CCl)nc2cc([N+](=O)[O-])ccc21 | 28 (≈ 124 µM) | 100 | 23.3 (≈ 103 µM) | 27.9 (≈ 124 µM) | 100 | 100 | 22.5 (≈ 99.6 µM) | 100 | > 100 | 48.7 | – | – | – | – |
| CC(=O)c1ccc(OCc2nc3ccccc3n2C)cc1 | > 120 | 55.7 | 39 (≈ 139 µM) | > 100 | 38.1 | 87.1 | 50.7 (≈ 181 µM) | 81.8 | 89.6 (≈ 320 µM) | 65.4 | – | – | – | – |
| CC(=O)c1cccc(OCc2nc3ccccc3n2C)c1 | > 120 | 64.5 | 82.4 (≈ 294 µM) | > 100 | 41.3 | 55.5 | > 100 | 78.5 | 68.9 (≈ 246 µM) | 82.5 | – | – | – | – |
| O=S(=O)(c1ccc(Cl)cc1)n1c(CCl)nc2ccccc21 | 22.3 (≈ 65.3 µM) | 31.9 | – | – | 74.6 | 27.4 | – | 28.1 | > 100 | 57.3 | – | Not Active | Not Active | Not Active |
| Cn1c(COc2ccc(Cl)cc2)nc2cc([N+](=O)[O-])ccc21 | – | 30.2 | – | – | 6.35 | 10.2 | – | < 5 | 13.4 (≈ 42 µM) | 100 | Not Active | Not Active | Not Active | Not Active |
